Measured values as given in paper PMC10451034, “Highly Efficient Photosensitizers with Molecular Vibrational Torsion for Cancer Photodynamic Therapy” (ACS Central Science, 2023).
Entries after “also recorded” stand apart in the source; their conditions may differ.

Key:
[1] = system: 4T1 subcutaneous solid tumor; assay: In vivo fluorescence imaging of 4T1 tumor-bearing mice; design: species or system BALB/c mice
Excerpt: The prospective in vitro results prompted us to further explore in vivo application possibility of QTCy7-Ac, and a solid tumor model of BALB/c mice was established by inoculating 4T1 cells subcutaneously under the armpit (Figure 10a). All the BALB/c mice were purchased from Liaoning Changsheng Biotechnology Co., Ltd., and the animal experiments were approved by the Local Scientific Research Ethics Review Committee of the Animal Ethics Committee of Dalian University of Technology (ID no. // Ethics Approval No. 2021-043). When the tumor volume reached 100 mm^3, fluorescence imaging was performed at different time points after intravenous injection of QTCy7-Ac. […] To test this hypothesis, the mice were executed and dissected 2.5 h after intravenous injection, and the fluorescence imaging of the main organs and tumor was performed.
DMEM medium was replaced with saline to prevent false positive interference. […] Then the confocal fluorescence imaging was carried out and recorded with a 10 × objective lens.
(§1) Cytotoxicity was tested by the reduction of methyl thiazolyl tetrazolium to formazan by succinic acid dehydrogenase in the mitochondria of living cells (MTT assay). […] The MTT solution was carefully removed and 100 μL DMSO was added to dissolve formazan, and the absorbance of each well was measured by a multifunctional microplate reader at 570 nm and 630 nm. […]

[2] = system: murine mammary carcinoma cells (4T1); assay: MTT cytotoxicity assay, 4T1; assay type: cell-based; details: Mus musculus, light or radiation study; 4T1, 660 nm irradiation 12 J/cm^2
Protocol: DMEM medium was replaced with saline to prevent false positive interference. Then the cells were exposed to different following treatments: 1) cells incubated with PBS; 2) cells incubated with PBS under 660 nm irradiation (20 mW/cm2, 10 min); 3) cells incubated with QTCy7-R; 4) cells incubated with QTCy7-R under 660 nm irradiation (20 mW/cm2, 10 min). After being different treated, the cells were stained with Calcein-AM and Propidium Iodide (PI) according to the manufacture instruction. Then the confocal fluorescence imaging was carried out and recorded with a 10 × objective lens.
as §1
Where “OD” represent the absorbance at 570 nm and 630 nm, “ps” and “control” represent experimental groups and control groups, respectively. […]
And the fluorescence signals were monitored at different post -injection time by a NightOWL II LB983 small animal in vivo imaging system (German). […]

In the case of CCOC(=O)C1=C/C(=C\C=C2/Sc3ccccc3N2CC)C(=O)C(/C=C/c2sc3ccccc3[n+]2CC)=C1 [QTCy7-Ac], the “time at which tumor region is lit up” value ([1]; after intravenous injection, 200 μM 100 μL) is reported as “around 60 min”, the “route of metabolism / organ distribution by ex vivo fluorescence” value ([1]; organs and tumor 2.5 h after intravenous injection) is reported as “metabolized primarily through the kidney; also recorded: non-negligible fluorescence signal stronger than the liver” and the IC50 [2] is reported as ~500 nM.
